Laboratory results published in ChEMBL document CHEMBL4813977, “Discovery of potent colony-stimulating factor 1 receptor inhibitors by replacement of hinge-binder moieties” (Eur J Med Chem, 2021).
Calls of active or inactive are those of the source. No cut-off for these calls is given here.

How the values were obtained:
[1] = target: Non-receptor tyrosine-protein kinase TYK2 (Homo sapiens) (UniProt P29597); test: Inhibition of human TYK2 at 0.1 uM using KKSRGDYMTMQIG as substrate in presence of [gamma-33P]-ATP by radiometric assay relative to control
[2] = target: Serine/threonine-protein kinase B-raf (Homo sapiens) (UniProt P15056); test: Inhibition of human BRAF at 0.1 uM using MEK1 (K97R) as substrate in presence of [gamma-33P]-ATP by radiometric assay relative to control
[3] = target: Epidermal growth factor receptor (Homo sapiens) (UniProt P00533); test: Inhibition of human EGFR at 0.1 uM using poly[Glu:Tyr] (4:1) as substrate in presence of [gamma-33P]-ATP by radiometric assay relative to control
[4] = target: Tyrosine-protein kinase Lck (Homo sapiens) (UniProt P06239); test: Inhibition of human LCK at 0.1 uM using poly[Glu:Tyr] (4:1) as substrate jn presence of [gamma-33P]-ATP by radiometric assay relative to control
[5] = target: Macrophage colony-stimulating factor 1 receptor (Homo sapiens) (UniProt P07333); settings: dose 100.0 nM
Description: Inhibition of human CSF1R at 100 nM using poly[Glu:Tyr] (4:1) as substrate in presence of [gamma-33P]-ATP by radiometric assay relative to control

[6] = target: Tyrosine-protein kinase JAK2 (Homo sapiens) (UniProt O60674); test: Inhibition of human JAK2 at 0.1 uM using poly[Glu:Tyr] (4:1) as substrate in presence of [gamma-33P]-ATP by radiometric assay relative to control
[7] = target: Dual specificity mitogen-activated protein kinase kinase 1 (Homo sapiens) (UniProt Q02750); test: Inhibition of human MEK1 at 0.1 uM using ERK2 (K52R) as substrate in presence of [gamma-33P]-ATP by radiometric assay relative to control
[8] = target: Receptor-type tyrosine-protein kinase FLT3 (Homo sapiens) (UniProt P36888); settings: dose 100.0 nM
[9] = target: Tyrosine-protein kinase ABL1 (Homo sapiens) (UniProt P00519); test: Inhibition of human ABL1 at 0.1 uM using EAIYAAPFAKKK as substrate in presence of [gamma-33P]-ATP by radiometric assay relative to control
[10] = target: Mast/stem cell growth factor receptor Kit (Homo sapiens) (UniProt P10721); settings: dose 10.0 nM
Description: Inhibition of human c-KIT at 10 nM using poly[Glu:Tyr] (4:1) as substrate in presence of [gamma-33P]-ATP by radiometric assay relative to control

[11] = target: Macrophage colony-stimulating factor 1 receptor (Homo sapiens) (UniProt P07333); settings: dose 10.0 nM
Description: Inhibition of human CSF1R at 10 nM using poly[Glu:Tyr] (4:1) as substrate in presence of [gamma-33P]-ATP by radiometric assay relative to control

[12] = target: ALK tyrosine kinase receptor (Homo sapiens) (UniProt Q9UM73); test: Inhibition of human ALK at 0.1 uM using poly[Glu:Tyr] (4:1) as substrate in presence of [gamma-33P]-ATP by radiometric assay relative to control
[13] = target: T1, Tyrosine-protein kinase JAK3 (Homo sapiens) (UniProt P52333); test: Inhibition of human JAK3 at 0.1 uM using GGEEEEYFELVKKKK as substrate in presence of [gamma-33P]-ATP by radiometric assay relative to control
T1 sequence (whole entry): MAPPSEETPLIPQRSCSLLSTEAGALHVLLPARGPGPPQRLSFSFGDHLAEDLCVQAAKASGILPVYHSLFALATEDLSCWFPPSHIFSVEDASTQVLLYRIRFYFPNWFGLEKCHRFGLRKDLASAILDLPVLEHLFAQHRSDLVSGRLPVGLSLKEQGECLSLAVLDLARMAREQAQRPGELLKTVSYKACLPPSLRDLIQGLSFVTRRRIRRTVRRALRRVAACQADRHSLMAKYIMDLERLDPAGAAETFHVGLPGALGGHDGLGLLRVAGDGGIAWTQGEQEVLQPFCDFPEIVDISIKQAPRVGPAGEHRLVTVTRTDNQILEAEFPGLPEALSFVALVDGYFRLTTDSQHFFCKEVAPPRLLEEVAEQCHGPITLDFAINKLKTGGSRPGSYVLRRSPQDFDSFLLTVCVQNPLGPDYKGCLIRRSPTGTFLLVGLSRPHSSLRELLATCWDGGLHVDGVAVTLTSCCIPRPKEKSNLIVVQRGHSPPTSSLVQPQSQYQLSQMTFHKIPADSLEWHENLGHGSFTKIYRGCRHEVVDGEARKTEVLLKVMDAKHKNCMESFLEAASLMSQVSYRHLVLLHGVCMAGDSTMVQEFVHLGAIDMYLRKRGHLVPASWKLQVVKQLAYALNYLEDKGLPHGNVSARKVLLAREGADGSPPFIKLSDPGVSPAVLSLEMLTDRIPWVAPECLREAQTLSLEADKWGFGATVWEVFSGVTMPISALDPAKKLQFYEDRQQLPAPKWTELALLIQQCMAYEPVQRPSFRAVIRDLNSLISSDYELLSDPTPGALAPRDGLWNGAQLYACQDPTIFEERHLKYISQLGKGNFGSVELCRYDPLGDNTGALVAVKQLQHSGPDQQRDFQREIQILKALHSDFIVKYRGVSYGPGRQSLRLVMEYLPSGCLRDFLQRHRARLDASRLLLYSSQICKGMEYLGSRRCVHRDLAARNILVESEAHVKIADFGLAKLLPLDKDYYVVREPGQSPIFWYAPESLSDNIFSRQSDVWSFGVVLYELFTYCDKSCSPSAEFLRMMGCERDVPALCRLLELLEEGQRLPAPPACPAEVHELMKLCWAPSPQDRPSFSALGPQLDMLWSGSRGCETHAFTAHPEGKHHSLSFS

[14] = target: Receptor-type tyrosine-protein kinase FLT3 (Homo sapiens) (UniProt P36888); settings: dose 10.0 nM
[15] = species: Homo sapiens; test: Inhibition of human PKA at 0.1 uM using LCGRTGRRNSI as substrate in presence of [gamma-33P]-ATP by radiometric assay relative to control
[16] = target: T2, Macrophage colony-stimulating factor 1 receptor (Mus musculus) (UniProt P09581); test: Inhibition of CSF1R phosphorylation in mouse RAW 264.7 cells at 10 to 100 nM preincubated for 5 hrs followed by CSF stimulation for 10 mins by Western blot analysis; format: cell-based; settings: RAW264.7, dose 10-100 nM, time 310.0 min
T2 sequence (whole entry): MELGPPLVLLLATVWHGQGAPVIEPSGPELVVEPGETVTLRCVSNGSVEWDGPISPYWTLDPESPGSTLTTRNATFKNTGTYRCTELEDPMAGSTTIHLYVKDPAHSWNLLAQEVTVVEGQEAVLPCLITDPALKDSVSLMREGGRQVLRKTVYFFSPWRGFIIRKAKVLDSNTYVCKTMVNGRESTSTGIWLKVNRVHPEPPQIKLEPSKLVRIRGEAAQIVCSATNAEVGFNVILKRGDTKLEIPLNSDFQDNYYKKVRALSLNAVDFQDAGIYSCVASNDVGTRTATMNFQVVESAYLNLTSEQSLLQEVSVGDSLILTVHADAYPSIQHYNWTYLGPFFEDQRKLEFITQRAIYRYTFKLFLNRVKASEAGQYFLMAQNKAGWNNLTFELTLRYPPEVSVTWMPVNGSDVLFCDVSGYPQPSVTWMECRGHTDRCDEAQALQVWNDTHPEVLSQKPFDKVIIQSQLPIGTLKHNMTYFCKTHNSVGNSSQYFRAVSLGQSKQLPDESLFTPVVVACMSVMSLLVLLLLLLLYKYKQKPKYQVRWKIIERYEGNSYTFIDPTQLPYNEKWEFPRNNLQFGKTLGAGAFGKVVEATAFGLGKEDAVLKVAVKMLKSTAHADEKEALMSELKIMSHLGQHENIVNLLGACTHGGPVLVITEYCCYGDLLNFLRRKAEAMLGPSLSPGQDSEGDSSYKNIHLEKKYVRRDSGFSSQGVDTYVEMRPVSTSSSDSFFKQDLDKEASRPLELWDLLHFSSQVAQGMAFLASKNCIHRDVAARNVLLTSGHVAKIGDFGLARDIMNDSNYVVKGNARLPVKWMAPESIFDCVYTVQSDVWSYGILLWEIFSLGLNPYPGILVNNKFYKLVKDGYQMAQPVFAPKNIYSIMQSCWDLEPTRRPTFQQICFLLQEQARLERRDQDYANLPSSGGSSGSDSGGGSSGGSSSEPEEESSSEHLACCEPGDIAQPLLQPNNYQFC

[17] = target: Mast/stem cell growth factor receptor Kit (Homo sapiens) (UniProt P10721); settings: dose 100.0 nM
Description: Inhibition of human c-KIT at 100 nM using poly[Glu:Tyr] (4:1) as substrate in presence of [gamma-33P]-ATP by radiometric assay relative to control

[18] = target: Mitogen-activated protein kinase 1 (Homo sapiens) (UniProt P28482); test: Inhibition of human ERK2 at 0.1 uM using MBP as substrate in presence of [gamma-33P]-ATP by radiometric assay relative to control
[19] = target: Tyrosine-protein kinase Lyn (Homo sapiens) (UniProt P07948); test: Inhibition of human LYN at 0.1 uM using poly[Glu:Tyr] (4:1) as substrate in presence of [gamma-33P]-ATP by radiometric assay relative to control

Chain of Mast/stem cell growth factor receptor Kit (Homo sapiens) (P10721 whole entry): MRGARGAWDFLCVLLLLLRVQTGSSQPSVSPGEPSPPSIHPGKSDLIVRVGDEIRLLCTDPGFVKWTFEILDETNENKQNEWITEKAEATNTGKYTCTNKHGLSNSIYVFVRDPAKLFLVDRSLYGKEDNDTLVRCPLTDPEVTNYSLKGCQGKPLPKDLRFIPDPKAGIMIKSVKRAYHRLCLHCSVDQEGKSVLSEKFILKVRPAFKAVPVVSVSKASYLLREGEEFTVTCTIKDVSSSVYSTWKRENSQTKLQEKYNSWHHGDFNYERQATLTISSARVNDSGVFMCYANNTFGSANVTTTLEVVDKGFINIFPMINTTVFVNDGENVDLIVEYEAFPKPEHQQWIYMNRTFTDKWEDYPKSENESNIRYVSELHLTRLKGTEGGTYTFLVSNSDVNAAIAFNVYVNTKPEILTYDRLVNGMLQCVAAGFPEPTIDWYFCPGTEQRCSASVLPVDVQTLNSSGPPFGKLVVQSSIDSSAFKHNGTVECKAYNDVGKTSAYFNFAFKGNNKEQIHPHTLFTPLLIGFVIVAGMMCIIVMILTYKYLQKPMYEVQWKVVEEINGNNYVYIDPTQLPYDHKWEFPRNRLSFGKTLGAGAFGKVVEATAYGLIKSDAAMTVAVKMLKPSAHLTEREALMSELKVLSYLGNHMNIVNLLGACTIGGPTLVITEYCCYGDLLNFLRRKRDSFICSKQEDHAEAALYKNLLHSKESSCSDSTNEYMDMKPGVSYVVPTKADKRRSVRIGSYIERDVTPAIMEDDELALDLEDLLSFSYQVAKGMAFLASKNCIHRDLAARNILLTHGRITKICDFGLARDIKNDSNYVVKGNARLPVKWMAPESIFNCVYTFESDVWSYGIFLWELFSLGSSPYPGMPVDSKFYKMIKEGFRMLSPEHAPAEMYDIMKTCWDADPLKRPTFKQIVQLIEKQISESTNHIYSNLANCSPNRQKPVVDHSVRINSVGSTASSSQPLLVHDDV
Chain of Macrophage colony-stimulating factor 1 receptor (Homo sapiens) (P07333 whole entry): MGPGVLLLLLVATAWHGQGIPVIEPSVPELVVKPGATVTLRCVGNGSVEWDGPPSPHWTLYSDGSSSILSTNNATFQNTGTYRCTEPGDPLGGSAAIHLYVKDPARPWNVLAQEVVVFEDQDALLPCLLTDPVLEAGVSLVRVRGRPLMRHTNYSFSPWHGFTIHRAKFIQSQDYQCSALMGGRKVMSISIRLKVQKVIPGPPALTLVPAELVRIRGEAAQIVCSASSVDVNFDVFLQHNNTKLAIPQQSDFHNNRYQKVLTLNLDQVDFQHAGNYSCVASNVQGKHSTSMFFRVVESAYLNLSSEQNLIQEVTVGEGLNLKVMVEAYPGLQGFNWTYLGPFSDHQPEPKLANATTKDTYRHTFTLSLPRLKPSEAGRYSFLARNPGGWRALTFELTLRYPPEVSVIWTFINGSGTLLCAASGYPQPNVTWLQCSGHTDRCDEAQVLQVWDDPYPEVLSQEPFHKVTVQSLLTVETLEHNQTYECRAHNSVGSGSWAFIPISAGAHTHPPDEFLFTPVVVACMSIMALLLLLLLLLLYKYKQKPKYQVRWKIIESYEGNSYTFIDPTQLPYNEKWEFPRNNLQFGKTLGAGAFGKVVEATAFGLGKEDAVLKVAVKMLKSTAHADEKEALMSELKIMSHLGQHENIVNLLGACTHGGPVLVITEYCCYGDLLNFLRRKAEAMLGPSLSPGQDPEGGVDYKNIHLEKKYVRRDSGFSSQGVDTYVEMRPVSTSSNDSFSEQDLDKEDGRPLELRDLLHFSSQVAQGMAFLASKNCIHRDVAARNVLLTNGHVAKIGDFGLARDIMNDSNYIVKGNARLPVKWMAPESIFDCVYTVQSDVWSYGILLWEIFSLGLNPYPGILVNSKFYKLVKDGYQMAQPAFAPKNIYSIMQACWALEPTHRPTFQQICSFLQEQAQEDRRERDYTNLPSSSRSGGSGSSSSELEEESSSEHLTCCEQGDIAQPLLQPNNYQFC
Chain of Receptor-type tyrosine-protein kinase FLT3 (Homo sapiens) (P36888 whole entry): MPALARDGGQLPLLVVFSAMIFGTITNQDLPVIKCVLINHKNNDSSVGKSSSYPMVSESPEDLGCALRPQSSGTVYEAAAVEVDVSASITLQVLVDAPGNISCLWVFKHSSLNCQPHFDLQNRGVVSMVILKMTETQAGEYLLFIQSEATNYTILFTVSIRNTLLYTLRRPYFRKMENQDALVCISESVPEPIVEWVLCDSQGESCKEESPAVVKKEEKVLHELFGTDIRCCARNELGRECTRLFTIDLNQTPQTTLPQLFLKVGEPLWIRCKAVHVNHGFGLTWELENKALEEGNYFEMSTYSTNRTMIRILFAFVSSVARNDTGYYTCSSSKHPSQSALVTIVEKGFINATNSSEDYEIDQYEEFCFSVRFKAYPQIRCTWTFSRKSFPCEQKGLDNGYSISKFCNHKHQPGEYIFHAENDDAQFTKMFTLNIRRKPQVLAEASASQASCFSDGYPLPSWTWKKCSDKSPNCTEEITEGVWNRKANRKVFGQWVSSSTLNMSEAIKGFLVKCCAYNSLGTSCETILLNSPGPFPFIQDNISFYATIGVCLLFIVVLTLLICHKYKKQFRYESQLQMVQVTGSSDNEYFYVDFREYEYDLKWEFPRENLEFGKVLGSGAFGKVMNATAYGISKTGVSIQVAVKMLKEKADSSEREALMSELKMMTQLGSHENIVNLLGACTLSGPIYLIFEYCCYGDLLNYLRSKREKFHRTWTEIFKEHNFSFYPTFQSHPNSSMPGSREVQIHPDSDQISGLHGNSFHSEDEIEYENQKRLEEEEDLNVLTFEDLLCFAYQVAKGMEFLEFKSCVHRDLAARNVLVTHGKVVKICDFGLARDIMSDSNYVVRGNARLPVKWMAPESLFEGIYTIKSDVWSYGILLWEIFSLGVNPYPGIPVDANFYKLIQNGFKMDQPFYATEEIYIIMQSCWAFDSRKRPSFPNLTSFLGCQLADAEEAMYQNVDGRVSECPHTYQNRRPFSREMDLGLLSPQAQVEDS
Chain of Epidermal growth factor receptor (Homo sapiens) (P00533 whole entry): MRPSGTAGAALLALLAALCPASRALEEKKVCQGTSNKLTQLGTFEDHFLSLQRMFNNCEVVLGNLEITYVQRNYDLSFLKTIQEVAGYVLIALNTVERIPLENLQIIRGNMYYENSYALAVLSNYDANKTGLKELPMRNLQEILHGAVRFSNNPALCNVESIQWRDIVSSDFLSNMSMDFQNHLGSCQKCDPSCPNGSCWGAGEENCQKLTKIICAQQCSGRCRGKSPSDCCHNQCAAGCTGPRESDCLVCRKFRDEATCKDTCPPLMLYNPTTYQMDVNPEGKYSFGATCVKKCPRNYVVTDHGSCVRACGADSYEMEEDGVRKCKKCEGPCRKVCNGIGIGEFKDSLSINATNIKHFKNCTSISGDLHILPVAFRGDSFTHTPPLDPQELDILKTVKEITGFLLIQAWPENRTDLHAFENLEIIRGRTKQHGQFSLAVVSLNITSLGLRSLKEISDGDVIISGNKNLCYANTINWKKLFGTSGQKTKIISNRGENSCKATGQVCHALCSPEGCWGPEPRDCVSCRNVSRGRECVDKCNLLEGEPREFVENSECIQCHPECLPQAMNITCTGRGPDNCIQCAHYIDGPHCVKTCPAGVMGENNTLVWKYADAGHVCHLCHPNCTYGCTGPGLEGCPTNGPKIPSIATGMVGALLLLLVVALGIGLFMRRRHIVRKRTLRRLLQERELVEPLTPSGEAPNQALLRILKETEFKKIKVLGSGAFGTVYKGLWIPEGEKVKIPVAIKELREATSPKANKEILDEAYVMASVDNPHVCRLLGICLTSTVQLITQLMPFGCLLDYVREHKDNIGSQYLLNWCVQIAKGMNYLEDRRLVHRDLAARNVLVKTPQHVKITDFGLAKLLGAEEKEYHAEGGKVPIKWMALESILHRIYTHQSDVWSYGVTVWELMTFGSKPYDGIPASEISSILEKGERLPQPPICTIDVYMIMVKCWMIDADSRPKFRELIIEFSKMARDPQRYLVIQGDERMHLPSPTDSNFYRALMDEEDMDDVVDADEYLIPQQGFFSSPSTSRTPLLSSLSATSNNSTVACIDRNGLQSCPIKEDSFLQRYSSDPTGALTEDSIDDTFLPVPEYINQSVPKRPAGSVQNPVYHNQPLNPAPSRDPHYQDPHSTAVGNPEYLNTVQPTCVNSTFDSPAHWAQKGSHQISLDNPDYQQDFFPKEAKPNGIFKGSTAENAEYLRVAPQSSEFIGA
Chain of Mitogen-activated protein kinase 1 (Homo sapiens) (P28482 whole entry): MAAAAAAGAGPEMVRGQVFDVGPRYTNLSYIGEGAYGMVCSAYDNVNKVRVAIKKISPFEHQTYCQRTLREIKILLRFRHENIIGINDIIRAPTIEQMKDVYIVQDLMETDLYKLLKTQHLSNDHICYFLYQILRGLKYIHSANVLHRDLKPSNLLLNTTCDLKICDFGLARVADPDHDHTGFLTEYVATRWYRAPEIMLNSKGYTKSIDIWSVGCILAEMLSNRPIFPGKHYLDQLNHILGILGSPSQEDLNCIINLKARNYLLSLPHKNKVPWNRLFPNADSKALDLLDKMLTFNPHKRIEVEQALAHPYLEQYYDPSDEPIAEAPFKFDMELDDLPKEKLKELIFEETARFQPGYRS
Chain of Tyrosine-protein kinase Lck (Homo sapiens) (P06239 2-509 limits assumed): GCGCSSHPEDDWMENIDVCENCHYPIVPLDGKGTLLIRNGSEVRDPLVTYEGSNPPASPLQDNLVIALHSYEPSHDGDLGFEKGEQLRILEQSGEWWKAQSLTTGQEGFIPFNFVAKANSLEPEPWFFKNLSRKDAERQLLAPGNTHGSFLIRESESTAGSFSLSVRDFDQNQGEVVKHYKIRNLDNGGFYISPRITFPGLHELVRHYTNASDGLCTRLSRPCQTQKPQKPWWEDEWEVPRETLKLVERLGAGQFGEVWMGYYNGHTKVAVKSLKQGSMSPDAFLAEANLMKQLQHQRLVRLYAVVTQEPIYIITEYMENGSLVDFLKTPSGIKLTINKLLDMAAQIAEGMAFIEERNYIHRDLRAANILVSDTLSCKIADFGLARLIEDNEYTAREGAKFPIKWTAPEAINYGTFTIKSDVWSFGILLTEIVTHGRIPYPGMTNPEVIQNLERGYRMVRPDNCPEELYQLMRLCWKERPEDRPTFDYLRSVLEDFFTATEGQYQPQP

inhibition [1]: 16%
inhibition [2]: 39%
inhibition [3]: 60%
inhibition [4]: 75%
inhibition [5]: 97%
inhibition [6]: 0%
inhibition [7]: 30%
inhibition [8]: 4%
inhibition [9]: 79%
inhibition [10]: 35%
inhibition [11]: 87%
inhibition [12]: 41%
inhibition [13]: 0%
inhibition [14]: 3%
inhibition [15]: 42%
inhibition [16]: Active
inhibition [17]: 58%
inhibition [18]: 0%
inhibition [19]: 93%
Compound: Cc1ccc(NC(=O)c2ccc(C(F)(F)F)nc2)cc1NC(=O)c1cnc2ccccn12
